Data: patent US20020119496A1, “Nuclear magnetic resonance screening method” (priority 2000, published 2002)

Target: T1, human muscle fatty acid binding protein M-FABP (Homo sapiens, UniProt P05413)
T1 construct: a plasmid containing the gene coding for a 143 amino acid protein construct of M-FABP; His-tag (C); made in house; host or cells: prototrophic Escherichia coli
Assay: Site-selective NMR screening, 1H-15N fHSQC of 13C'-Val, 15N-Ala labeled M-FABP
Conditions: 1:1 mixture with M-FABP, 200 μM protein
Method: The spectra were recorded at 20° C. on a 600 MHz Varian Unity INOVA NMR spectrometer using standard techniques. The sample was prepared in 20 mM sodium phosphate buffer (10% D2O/90% H2O) pH 7.4 containing 50 mM NaCl, 10 mM DTT and 0.02% NaN3. […] (a) 2D ^1H-^15N fast-HSQC (Mori et al., 1995), (b) 2D HNCO and (c) 1D HNCO. […] Experimental times were 1 hour, 4 hours, and 20 minutes respectively.
Experimental conditions were identical to those described in FIG. 8 except the samples used for spectra b-d contained additionally 1% d-DMSO. (a-d) Reference spectrum of free M-FABP. (b) 1:1 mixture of M-FABP and compound cocktail. (c) 1:1 mixture M-FABP and compound cocktail omitting oleic acid. (d) 1:1 mixture of M-FABP and oleic acid.

T1 sequence (P05413 whole entry): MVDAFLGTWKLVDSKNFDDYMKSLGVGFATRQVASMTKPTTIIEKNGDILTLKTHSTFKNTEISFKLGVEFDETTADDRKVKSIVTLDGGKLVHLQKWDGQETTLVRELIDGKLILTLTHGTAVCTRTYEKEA

chemical shift change of alanine 33 HSQC cross peak: chemical shift change is observed
Structure (SMILES): CCCCCCCC/C=C\CCCCCCCC(=O)O [oleic acid]
